# Molecular target: T1, pY705-STAT3 in PBMC (Homo sapiens, UniProt P40763)
# T1 construct: Cryopreserved Peripheral Blood Mononuclear Cells (PBMC) are from AllCells; host or cells: cryopreserved PBMC
# Experiment: MSD-pSTAT-PBMC Assay (pSTAT3, IL-6 stimulated)
# Format: cell-based
# Settings: PBMC, compound 3 hrs, then 10 ng/mL IL-6 for 10 min; Table 115; read-out: STAT3
# In short: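 PBMC (human, cryopreserved, overnight recovery) + cpd 3 hrs → IL-6 10 ng/mL (STAT3) or IL-4 1 ng/mL (STAT6) ×10 min → lysis with protease/phosphatase inhibitors → MSD capture/phospho detection. IC50, variable slope, DMSO-normalized.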
# T1 sequence (P40763 whole entry): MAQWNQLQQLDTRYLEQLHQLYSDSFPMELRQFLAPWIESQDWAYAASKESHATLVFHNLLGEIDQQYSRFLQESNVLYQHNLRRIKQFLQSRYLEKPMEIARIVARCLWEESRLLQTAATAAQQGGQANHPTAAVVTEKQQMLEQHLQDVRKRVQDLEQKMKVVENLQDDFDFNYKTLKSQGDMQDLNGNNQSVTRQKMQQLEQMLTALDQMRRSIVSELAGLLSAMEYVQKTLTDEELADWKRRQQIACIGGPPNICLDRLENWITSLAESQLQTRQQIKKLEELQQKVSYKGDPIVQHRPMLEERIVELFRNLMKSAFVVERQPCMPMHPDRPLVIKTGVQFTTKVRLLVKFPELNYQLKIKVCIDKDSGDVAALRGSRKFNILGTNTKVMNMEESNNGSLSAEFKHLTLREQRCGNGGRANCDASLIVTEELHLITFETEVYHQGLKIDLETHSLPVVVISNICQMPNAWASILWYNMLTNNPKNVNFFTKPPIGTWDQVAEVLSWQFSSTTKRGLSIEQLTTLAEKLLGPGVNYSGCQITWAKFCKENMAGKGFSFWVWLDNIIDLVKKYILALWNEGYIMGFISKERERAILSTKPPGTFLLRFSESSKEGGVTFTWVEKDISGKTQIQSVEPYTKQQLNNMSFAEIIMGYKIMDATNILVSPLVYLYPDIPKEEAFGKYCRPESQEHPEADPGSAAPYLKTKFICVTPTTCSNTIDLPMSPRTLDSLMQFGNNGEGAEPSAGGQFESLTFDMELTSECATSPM
row,SMILES,IC50 [nM]
1,"CCCOC(=O)[C@H](C)NP(=O)(Oc1ccccc1)[C@H](F)c1ccc2sc(C(=O)N[C@H]3CCC[C@H]4CC[C@@H](C(=O)N5CC(c6cncnc6N6CCOCC6)C5)N4C3=O)cc2c1 (stereo partly drawn) [Compound 1067, propyl (((S)-fluoro(2-(((3S,6S,9aS)-3-(3-(4-morpholinopyrimidin-5-yl)azetidine-1-carbonyl)-5-oxooctahydro-1H-pyrrolo[1,2-a]azepin-6-yl)carbamoyl)benzo [b]thiophen-5-yl)methyl)(phenoxy)phosphoryl)-L-alaninate]",100 to 1000
2,CCCOC(=O)[C@H](C)NP(=O)(Oc1ccccc1)[C@H](F)c1ccc2sc(C(=O)N[C@H]3CCC[C@H]4CC[C@@H](C(=O)N5CC(c6cncnc6N(C)C)C5)N4C3=O)cc2c1 (some centres unmarked) [Compound 1068],< 100
3,CCCOC(=O)[C@H](C)NP(=O)(Oc1ccccc1)[C@@H](F)c1ccc2sc(C(=O)N[C@H]3CCC[C@H]4CC[C@@H](C(=O)N5CC(c6cncnc6N(C)C)C5)N4C3=O)cc2c1 (some centres unmarked) [Compound 1069],< 100
4,"CCCOC(=O)[C@H](C)NP(=O)(Cc1ccc2sc(C(=O)N[C@H]3CCC[C@H]4CC[C@@H](C(=O)N5CC(c6cncnc6N(C)C)C5)N4C3=O)cc2c1)Oc1ccccc1 (stereo partly drawn) [Compound 1070, propyl (((2-(((3S,6S,9aS)-3-(3-(4-(dimethylamino)pyrimidin-5-yl)azetidine-1-carbonyl)-5-oxooctahydro-1H-pyrrolo[1,2-a]azepin-6-yl)carbamoyl)benzo [b]thiophen-5-yl)methyl)(phenoxy)phosphoryl)-L-alaninate]",< 100
5,"CCCOC(=O)[C@H](C)NP(=O)(Oc1ccccc1)[C@@H](F)c1ccc2sc(C(=O)N[C@H]3CCC[C@H]4CC[C@@H](C(=O)N5CC(c6cncnc6N6CC[C@H]6COC)C5)N4C3=O)cc2c1 (stereo partly drawn) [Compound 1071, propyl (((R)-fluoro(2-(((3S,6S,9aS)-3-(3-(4-((S)-2-(methoxymethyl)azetidin-1-yl)pyrimidin-5-yl)azetidine-1-carbonyl)-5-oxooctahydro-1H-pyrrolo[1,2-a]azepin-6-yl)carbamoyl)benzo [b]thiophen-5-yl)methyl)(phenoxy)phosphoryl)-L-alaninate]",< 100
6,"CCCOC(=O)[C@H](C)NP(=O)(Cc1ccc2sc(C(=O)N[C@H]3CCC[C@H]4CC[C@@H](C(=O)N5CC(c6cncnc6N6CC[C@H]6COC)C5)N4C3=O)cc2c1)Oc1ccccc1 (stereo partly drawn) [Compound 1072, propyl (((2-(((3S,6S,9aS)-3-(3-(4-((S)-2-(methoxymethyl)azetidin-1-yl)pyrimidin-5-yl)azetidine-1-carbonyl)-5-oxooctahydro-1H-pyrrolo[1,2-a]azepin-6-yl)carbamoyl)benzo [b]thiophen-5-yl)methyl)(phenoxy)phosphoryl)-L-alaninate]",< 100
7,"CCCOC(=O)[C@H](C)NP(=O)(Oc1ccccc1)[C@@H](F)c1ccc2sc(C(=O)N[C@H]3CCC[C@H]4CC[C@@H](C(=O)N5CC(c6cncc(F)c6OC)C5)N4C3=O)cc2c1 (stereo partly drawn) [Compound 1073, propyl (((R)-fluoro(2-(((3S,6S,9aS)-3-(3-(5-fluoro-4-methoxypyridin-3-yl)azetidine-1-carbonyl)-5-oxooctahydro-1H-pyrrolo[1,2-a]azepin-6-yl)carbamoyl)benzo [b]thiophen-5-yl)methyl)(phenoxy)phosphoryl)-L-alaninate]",100 to 1000
8,"CCCOC(=O)[C@H](C)NP(=O)(Cc1ccc2sc(C(=O)N[C@H]3C[C@@H](C)C[C@H]4CC[C@@H](C(=O)N5CC(c6cncnc6N6CCC6)C5)N4C3=O)cc2c1)Oc1ccccc1 (stereo partly drawn) [Compound 1074, propyl (((2-(((3S,6S,8R,9aR)-3-(3-(4-(azetidin-1-yl)pyrimidin-5-yl)azetidine-1-carbonyl)-8-methyl-5-oxooctahydro-1H-pyrrolo[1,2-a]azepin-6-yl)carbamoyl)benzo [b]thiophen-5-yl)methyl)(phenoxy)phosphoryl)-L-alaninate]",< 100
9,CCCOC(=O)[C@H](C)NP(=O)(Oc1ccccc1)[C@@H](F)c1ccc2sc(C(=O)N[C@H]3CCC[C@H]4CC[C@@H](C(=O)N5CC(c6cncnc6N6CCC6)C5)N4C3=O)cc2c1 (some centres unmarked) [Compound 1075],< 100
10,CCCOC(=O)[C@H](C)NP(=O)(Oc1ccccc1)[C@H](F)c1ccc2sc(C(=O)N[C@H]3CCC[C@H]4CC[C@@H](C(=O)N5CC(c6cncnc6N6CCC6)C5)N4C3=O)cc2c1 (some centres unmarked) [Compound 1076],< 100
11,CCCOC(=O)[C@H](C)NP(=O)(Oc1ccccc1)[C@@H](F)c1ccc2sc(C(=O)N[C@H]3C[C@@H](C)C[C@H]4CC[C@@H](C(=O)N5CC(c6cncnc6N6CCC6)C5)N4C3=O)cc2c1 (some centres unmarked) [Compound 1077],< 100
12,CCCOC(=O)[C@H](C)NP(=O)(Oc1ccccc1)[C@H](F)c1ccc2sc(C(=O)N[C@H]3C[C@@H](C)C[C@H]4CC[C@@H](C(=O)N5CC(c6cncnc6N6CCC6)C5)N4C3=O)cc2c1 (some centres unmarked) [Compound 1078],< 100
13,"CC(C)CC(=O)SCCOP(=O)(Cc1ccc2sc(C(=O)N[C@H]3CCC[C@H]4CC[C@@H](C(=O)N5CC(c6cccnc6)C5)N4C3=O)cc2c1)OCCSC(=O)CC(C)C [Compound 1084, S,S′-(((((2-(((3S,6S,9aS)-5-oxo-3-(3-(pyridin-3-yl)azetidine-1-carbonyl)octahydro-1H-pyrrolo[1,2-a]azepin-6-yl)carbamoyl)benzo [b]thiophen-5-yl)methyl)phosphoryl)bis(oxy))bis(ethane-2,1-diyl)) bis(3-methylbutanethioate)]",100 to 1000
14,"CC(C)CC(=O)SCCOP(=O)(OCOC(=O)OC1COC1)C(F)(F)c1ccc2sc(C(=O)N[C@H]3CCC[C@H]4CC[C@@H](C(=O)N5CC(c6ncccn6)C5)N4C3=O)cc2c1 (stereo partly drawn) [Compound 1095, S-(2-(((difluoro(2-(((3S,6S,9aS)-5-oxo-3-(3-(pyrimidin-2-yl)azetidine-1-carbonyl)octahydro-1H-pyrrolo[1,2-a]azepin-6-yl)carbamoyl)benzo [b]thiophen-5-yl)methyl) ((((oxetan-3-yloxy)carbonyl)oxy)methoxy)phosphoryl)oxy)ethyl) 3-methyl-butanethioate]",< 100
15,"CC(C)CC(=O)SCCOP(=O)(OCOC(=O)OC(C)C)[C@H](F)c1ccc2sc(C(=O)N[C@H]3CCC[C@H]4CC[C@@H](C(=O)N5CC(c6cccnc6)C5)N4C3=O)cc2c1 (stereo partly drawn) [Compound 1096, S-(2-((((S)-fluoro(2-(((3S,6S,9aS)-5-oxo-3-(3-(pyridin-3-yl)azetidine-1-carbonyl)octahydro-1H-pyrrolo[1,2-a]azepin-6-yl)carbamoyl)benzo [b]thiophen-5-yl)methyl) (((isopropoxy-carbonyl)oxy)methoxy)phosphoryl)oxy)ethyl) 3-methylbutanethioate]",< 100
16,"CC(C)CC(=O)SCCOP(=O)(OCOC(=O)O[C@@H]1CCOC1)C(F)(F)c1ccc2sc(C(=O)N[C@H]3CCC[C@H]4CC[C@@H](C(=O)N5CC(c6ncccn6)C5)N4C3=O)cc2c1 (stereo partly drawn) [Compound 1098, S-(2-(((difluoro(2-(((3S,6S,9aS)-5-oxo-3-(3-(pyrimidin-2-yl)azetidine-1-carbonyl)octahydro-1H-pyrrolo[1,2-a]azepin-6-yl)carbamoyl)benzo [b]thiophen-5-yl)methyl)((((((R)-tetrahydrofuran-3-yl)oxy)carbonyl)oxy)methoxy)phosphoryl)oxy)ethyl) 3-methylbutanethioate]",< 100
17,"CC(C)CC(=O)SCCOP(=O)(OCOC(=O)O[C@H]1CCOC1)C(F)(F)c1ccc2sc(C(=O)N[C@H]3CCC[C@H]4CC[C@@H](C(=O)N5CC(c6ncccn6)C5)N4C3=O)cc2c1 (stereo partly drawn) [Compound 1099, S-(2-(((difluoro(2-(((3S,6S,9aS)-5-oxo-3-(3-(pyrimidin-2-yl)azetidine-1-carbonyl)octahydro-1H-pyrrolo[1,2-a]azepin-6-yl)carbamoyl)benzo [b]thiophen-5-yl)methyl)((((((S)-tetrahydrofuran-3-yl)oxy)carbonyl)oxy)methoxy)phosphoryl)oxy)ethyl) 3-methylbutanethioate]",< 100
18,"COCCOCC(=O)SCCOP(=O)(OCCSC(=O)COCCOC)C(F)(F)c1ccc2sc(C(=O)N[C@H]3CCC[C@H]4CC[C@@H](C(=O)N5CC(c6cccnc6)C5)N4C3=O)cc2c1 [Compound 1102, S,S′-((((difluoro(2-(((3S,6S,9aS)-5-oxo-3-(3-(pyridin-3-yl)azetidine-1-carbonyl)octahydro-1H-pyrrolo[1,2-a]azepin-6-yl)carbamoyl)benzo [b]thiophen-5-yl)methyl)phosphoryl)bis(oxy))bis(ethane-2,1-diyl)) bis(2-(2-methoxyethoxy) ethanethioate)]",< 100
19,"CC(C)CC(=O)SCCOP(=O)(OCOC(=O)OC1CCOCC1)C(F)(F)c1ccc2sc(C(=O)N[C@H]3CCC[C@H]4CC[C@@H](C(=O)N5CC(c6ncccn6)C5)N4C3=O)cc2c1 (stereo partly drawn) [Compound 1105, S-(2-(((difluoro(2-(((3S,6S,9aS)-5-oxo-3-(3-(pyrimidin-2-yl)azetidine-1-carbonyl)octahydro-1H-pyrrolo[1,2-a]azepin-6-yl)carbamoyl)benzo [b]thiophen-5-yl)methyl)(((((tetra-hydro-2H-pyran-4-yl)oxy)carbonyl)oxy)methoxy)phosphoryl)oxy)ethyl) 3-methylbutanethioate]",< 100

# Same assay, conditions: STAT3, PBMC, compound 3 hrs, then 10 ng/mL IL-6 for 10 min; Table 115
row,SMILES,IC50 [nM]
1,"CCCOC(=O)[C@H](C)NP(=O)(Cc1ccc2sc(C(=O)N[C@H]3C[C@H](C)C[C@H]4CC[C@@H](C(=O)N5CC(c6cnccc6N(C)C)C5)N4C3=O)cc2c1)Oc1ccccc1 (stereo partly drawn) [Compound 1079, propyl (((2-(((3S,6S,8S,9aR)-3-(3-(4-(dimethylamino)pyridin-3-yl)azetidine-1-carbonyl)-8-methyl-5-oxooctahydro-1H-pyrrolo[1,2-a]azepin-6-yl)carbamoyl)benzo [b]thiophen-5-yl)methyl)(phenoxy)phosphoryl)-L-alaninate]",< 100

# — US20250215029A1 (Recludix Pharma, Inc., priority 2022, published 2025)
